System: H3K4me3 at known PRDM9 binding loci and control TSS loci
Assay: ChIP-qPCR of H3K4me3 in PRDM9-transfected HEK293T cells
Type: cell-based, human
Settings: for dCq (IP-Input): H3K4me3 antibody, Replicate 1; for 2^-dCq (H3K4me3 ChIP-qPCR, IP relative to H3) / H3K4me3 ChIP-qPCR 2^-dCq (IP-Input): Replicate 2; for 2^-dCq (H3K4me3 ChIP-qPCR, IP relative to H3): Antibody H3K4me3; for H3K4me3 ChIP-qPCR 2^-dCq (IP-Input): chr2:40281930-40282015 Intragenic (SLC8A1-AS1), Figure 7 C, H3K4me3 antibody relative to H3
Procedure: ChIP-qPCR assays were then conducted on known PRDM9 binding loci[26]. Ectopic expression of PRDM9^WT increased trimethylation of H3K4 (H3K4me3) at previously described PRDM9-specific intragenic and intergenic regions[26] (Fig. 7; Supplementary Fig. 12). […] The observed increases in H3K4me3 levels at intragenic and intergenic regions are therefore due directly to PRDM9 PR domain-dependent methylation activity, rather than through recruitment of other H3K4 methyltransferases or other indirect mechanisms.
ChIP qPCR analyses of H3K4me3 methylation levels of known PRDM9-bound loci and control loci. […] Concentrations used (µM) are indicated below each plot. (a–d) represent reported loci of PRDM9 methylation; (e, f) are transcriptional start sites (TSSs) which are not known loci of PRDM9 methylation. Data are normalized to total H3 and are presented as the mean ± upper and lower limits from two replicates. Representative plots of two independent experiments are shown in this figure. The coordinates and the genomic features associated with the assayed loci are indicated above each plot. Left Tailed Student's t-tests were performed by comparing DMSO (0 µM) treated cells to compound treated cells that have been transfected with the same plasmids. *p-value < 0.05 and **p-value < 0.01. Note that here we show a representative of two independent experiments (mean ± s.d of technical replicates) for our ChIP-qPCR experiments. Data obtained using this technique are inherently noisy due to stochastic differences in gene activity/histone positioning. Data are thus typically presented as representative rather than averaged. Source data are provided as a Source Data file.
HEK293T cells were transfected with 37.5 μg empty pcDNA3.1(+) vector (Invitrogen), or the same vector expressing either wild-type PRDM9 (PRDM9^WT) or a catalytically dead PRDM9 mutant (PRDM9^Mut) and 75 μL of Lipofectamine 2000 (Invitrogen) in 6 mL of Opti-MEM (GIBCO) for 48 h. […] ChIP assays were then performed as previously described. Briefly, cells were fixed in 1% formaldehyde and the fixation reaction was quenched in a final concentration of 0.1 M glycine. Cell pellets were first lysed in LB1 (50 mM HEPES-KOH pH 7.5, 140 mM NaCl, 1 mM EDTA, 10% Glycerol, 0.5% Igepal, 0.25% TritonX), washed once in LB2 Buffer (10 mM Tris-HCl pH 8, 200 mM NaCl, 1 mM EDTA, 0.5 mM EGTA) and finally sonicated in LB3 buffer (10 mM Tris-HCl pH 8, 100 mM NaCl, 1 mM EDTA, 0.5 mM EGTA, 0.1% Sodium deoxycholate, 0.5% N-laurosylsarcosine) using a bioruptor (Diagenode). Thereafter, 50 μg of chromatin was subjected to ChIP using the following antibodies purchased from Abcam: α-H3K4me3 (1:200, ab8580, lot:GR3207339-1) and α-H3 (1:250, ab1791, lot:GR300978-4). After extensive washing in RIPA wash buffer (50 mM HEPES-KOH pH 7.6, 100 mM LiCl, 1 mM EDTA, 1% Igepal, 0.7% Sodium Deoxycholate), DNA was eluted from beads. The eluted DNA was treated with RNase A and Proteinase K and purified using the QIAGEN PCR purification kit. qPCR was then carried out targeting the indicated loci (Supplementary Table 3). Upper and lower limits were defined by |2^−(dCq±s) − 2^−(∆Cq)|, where s = √((Standard deviation of Input Cq)^2 + (Standard deviation of Target Cq)^2). […]
formation. ChIP qPCR analyses of H3K4me3 methylation levels at known PRDM9-bound and control loci. Cells transfected with empty vector (negative control) or vectors overexpressing either wild-type PRDM9 (PRDM9 WT) or catalytically dead PRDM9 (PRDM9 MUT) were […]
Panels a-d represent reported loci of […]
(1 picture or pasted object on this page, not shown here)
PRDM9 methylation; e-f are TSSs which are not known sites of PRDM9 methylation. Data are normalized to total H3 and are presented as the mean ± upper and lower limits from two […]

For `COc1cc(OC)cc(-c2noc(N3CCN(C)C4(CCN(c5ccnc(C)c5)CC4)C3)n2)c1` [MRK-740], the “dCq (IP-Input)” value (chr8:49932778-49932856 (Intergenic), PRDM9) was -2.203, the “dCq (IP-Input)” value (chr8:49932778-49932856 (Intergenic), PRDM9_Cat.Dead) was 1.033 and the “dCq (IP-Input)” value (chr12:6643945-6644023 TSS (GAPDH), Empty Vector) was -5.504. The “dCq (IP-Input)” value (chr12:6643945-6644023 TSS (GAPDH), PRDM9) was -5.409, the “dCq (IP-Input)” value (chr12:6643945-6644023 TSS (GAPDH), PRDM9_Cat.Dead) was -6.466 and the “dCq (IP-Input)” value (chr19:8510167-8510261 TSS (HNRNPM), Empty Vector) was -5.657. The “dCq (IP-Input)” value (chr19:8510167-8510261 TSS (HNRNPM), PRDM9) was -5.412, the “dCq (IP-Input)” value (chr19:8510167-8510261 TSS (HNRNPM), PRDM9_Cat.Dead) was -6.463 and the “H3K4me3 levels at tested TSS sites (ChIP-qPCR, in words)” value (HEK293T transfected with wild-type PRDM9, 48 h) was “No significant reduction in H3K4me3 levels”. The “H3K4me3 levels at PRDM9-dependent intragenic and intergenic loci (ChIP-qPCR, in words)” value (HEK293T transfected with wild-type PRDM9, 48 h, various concentrations) was “abrogated in a concentration-dependent manner in three out of four PRDM9-dependent loci”, the “2^-dCq (H3K4me3 ChIP-qPCR, IP relative to H3)” value (Figure 7 D chr3:165514798-165514911 Intragenic (BCHE), Plasmid Empty Vector, Drug Conc. 2.5) was 0.6821 and the “2^-dCq (H3K4me3 ChIP-qPCR, IP relative to H3)” value (Figure 7 D chr3:165514798-165514911 Intragenic (BCHE), Plasmid Empty Vector, Drug Conc. 5) was 0.9187. For the same compound, the “2^-dCq (H3K4me3 ChIP-qPCR, IP relative to H3)” value (Figure 7 D chr3:165514798-165514911 Intragenic (BCHE), Plasmid Empty Vector, Drug Conc. 10) was 0.5228, the “2^-dCq (H3K4me3 ChIP-qPCR, IP relative to H3)” value (Figure 7 D chr3:165514798-165514911 Intragenic (BCHE), Plasmid PRDM9WT, Drug Conc. 2.5) was 6.769 and the “2^-dCq (H3K4me3 ChIP-qPCR, IP relative to H3)” value (Figure 7 D chr3:165514798-165514911 Intragenic (BCHE), Plasmid PRDM9WT, Drug Conc. 5) was 7.878. For the same compound, the “2^-dCq (H3K4me3 ChIP-qPCR, IP relative to H3)” value (Figure 7 D chr3:165514798-165514911 Intragenic (BCHE), Plasmid PRDM9WT, Drug Conc. 10) was 3.468, the “2^-dCq (H3K4me3 ChIP-qPCR, IP relative to H3)” value (Figure 7 E chr12:6643945-6644023 TSS (GAPDH), Plasmid Empty Vector, Drug Conc. 2.5) was 49.5681 and the “2^-dCq (H3K4me3 ChIP-qPCR, IP relative to H3)” value (Figure 7 E chr12:6643945-6644023 TSS (GAPDH), Plasmid Empty Vector, Drug Conc. 5) was 83.0384. The “2^-dCq (H3K4me3 ChIP-qPCR, IP relative to H3)” value (Figure 7 E chr12:6643945-6644023 TSS (GAPDH), Plasmid Empty Vector, Drug Conc. 10) was 114.864, the “2^-dCq (H3K4me3 ChIP-qPCR, IP relative to H3)” value (Figure 7 E chr12:6643945-6644023 TSS (GAPDH), Plasmid PRDM9WT, Drug Conc. 2.5) was 64.1133 and the “2^-dCq (H3K4me3 ChIP-qPCR, IP relative to H3)” value (Figure 7 E chr12:6643945-6644023 TSS (GAPDH), Plasmid PRDM9WT, Drug Conc. 5) was 130.72. The “2^-dCq (H3K4me3 ChIP-qPCR, IP relative to H3)” value (Figure 7 E chr12:6643945-6644023 TSS (GAPDH), Plasmid PRDM9WT, Drug Conc. 10) was 21.1787, the “2^-dCq (H3K4me3 ChIP-qPCR, IP relative to H3)” value (Figure 7 F chr19:8510167-8510261 TSS (HNRNPM), Plasmid Empty Vector, Drug Conc. 2.5) was 123.77 and the “2^-dCq (H3K4me3 ChIP-qPCR, IP relative to H3)” value (Figure 7 F chr19:8510167-8510261 TSS (HNRNPM), Plasmid Empty Vector, Drug Conc. 5) was 107.435. The “2^-dCq (H3K4me3 ChIP-qPCR, IP relative to H3)” value (Figure 7 F chr19:8510167-8510261 TSS (HNRNPM), Plasmid Empty Vector, Drug Conc. 10) was 99.1079, the “2^-dCq (H3K4me3 ChIP-qPCR, IP relative to H3)” value (Figure 7 F chr19:8510167-8510261 TSS (HNRNPM), Plasmid PRDM9WT, Drug Conc. 2.5) was 68.6717 and the “2^-dCq (H3K4me3 ChIP-qPCR, IP relative to H3)” value (Figure 7 F chr19:8510167-8510261 TSS (HNRNPM), Plasmid PRDM9WT, Drug Conc. 5) was 143.684. For the same compound, the “2^-dCq (H3K4me3 ChIP-qPCR, IP relative to H3)” value (Figure 7 F chr19:8510167-8510261 TSS (HNRNPM), Plasmid PRDM9WT, Drug Conc. 10) was 36.5414, the “H3K4me3 ChIP-qPCR 2^-dCq (IP-Input)” value (Empty Vector, Drug Conc. 2.5) was 0.6992 and the “H3K4me3 ChIP-qPCR 2^-dCq (IP-Input)” value (Empty Vector, Drug Conc. 5) was 0.9795. For the same compound, the “H3K4me3 ChIP-qPCR 2^-dCq (IP-Input)” value (Empty Vector, Drug Conc. 10) was 0.6781, the “H3K4me3 ChIP-qPCR 2^-dCq (IP-Input)” value (PRDM9WT, Drug Conc. 2.5) was 6.293 and the “H3K4me3 ChIP-qPCR 2^-dCq (IP-Input)” value (PRDM9WT, Drug Conc. 5) was 5.934.

From publication PMC6917776, “Discovery of a chemical probe for PRDM9” (Nature Communications, 2019)
